# Data reported in PMC5104426, “Screening a Phage Display Library for Two Novel OmpU-Binding Peptides with Adhesion Antagonistic Activity against Vibrio mimicus” (PLoS ONE, 2016).
# Assays:
# rOmpU fusion protein = test: Solid phase non-competitive ELISA (Beatty method), affinity constant; format: binding, Vibrio mimicus; details: for affinity constant: peptide coated 2.5-40 μg/mL, rOmpU 0.2-12.8 μg/mL, modified Beatty formula, triplicate, mean ± SD, SD; for AAP concentration at 50% OD492nm: from fitted curve equation
# Description: To determine the binding affinity of interactions between adhesion antagonistic peptide and rOmpU fusion protein, solid phase non-competitive ELISA method (also known as the Beatty method) was used to measure the affinity constant of adhesion antagonistic peptide. Briefly, adhesion antagonistic peptides were diluted to 40 μg/mL, 20 μg/mL, 10 μg/mL, 5 μg/mL and 2.5 μg/mL, respectively, and laterally coated onto plate wells (100 μL/well) at 4°C overnight. Next day, each well was blocked with 5% BSA at 37°C for 2 h, and then washed 6 times with TBST. Subsequently, rOmpU fusion protein were diluted to 12.8 μg/mL, 3.2 μg/mL, 0.8 μg/mL and 0.2 μg/mL, respectively, and longitudinally added to coated wells (100 μL/well), and the plates were incubated for 2 h at 37°C. After thorough washing, rabbit anti-rOmpU protein antibody, HRP labeled goat anti-rabbit IgG and substrate solution was added in turn, each step was preceded by 6 washes in TBST. OD492 nm values were finally determined. With OD492nm values as the ordinate and adhesion antagonistic peptide concentration as the abscissa, the binding reaction curves between adhesion antagonistic peptide and rOmpU fusion protein at different concentrations were plotted. MATLAB version 7.0 was used to fitting the binding response curve, and to derive the curve equation. From the equation, the corresponding adhesion antagonistic peptide concentration at 50% OD492nm value in the curve was obtained. The affinity constant K was calculated using a modified version of the Beatty formula [affinity constant (K) = (n—1) / 2 (nAb'total- Abtotal)] [11]. Ab'total and Abtotal in the formula represent respectively the corresponding adhesion antagonistic peptide concentration at 50% OD492nm value in the binding response curve when the concentration of rOmpU protein was P' and P; n represents P/P'. This assay was performed in triplicate.
# grass carps = test: Acute toxicity to grass carps; format: in vivo, Ctenopharyngodon idella; details: 100 mg/kg i.p., six fish per group; for survival in the 7-day study period: 7 days
# Description: Healthy grass carps weighting 50–52 g were purchased from a commercial fish farm in Anhui province of China, and then were maintained in a flow-through water system at a temperature of 25 ± 1°C and fed commercial pellets on a daily basis. After 14 days when grass carps were confirmed to be healthy, the water temperature was increased to 28 ± 1°C slowly, and the experiment began.
# For acute toxicity detection, synthetic P1, P2 and unrelated control peptide was dissolved in sterile deionized water, respectively, and given to grass carps by intraperitoneal (i.p.) injection at a dose of 100 mg/kg, six fish per group. The number of fish surviving in each group was monitored for up to a period of 7 days after injection. At the end of the experiments, all surviving fish were euthanized in a solution of 200 mg/L of MS-222 followed by a blow to the head.
sequence,measurement,setting,value
"TWTCSDVICTAR [P1, adhesion antagonistic peptide]",affinity constant,rOmpU fusion protein,(6.17 ± 0.19) × 10^8 L/mol
same,AAP concentration at 50% OD492nm,rOmpU fusion protein; rOmpU concentration 0.2 μg/mL,1.12 µg/mL
same,AAP concentration at 50% OD492nm,rOmpU fusion protein; rOmpU concentration 0.8 μg/mL,1.05 µg/mL
same,AAP concentration at 50% OD492nm,rOmpU fusion protein; rOmpU concentration 3.2 μg/mL,0.98 µg/mL
same,AAP concentration at 50% OD492nm,rOmpU fusion protein; rOmpU concentration 12.8 μg/mL,0.86 µg/mL
same,immediate adverse events (enervation or feed intake reduction),grass carps,no immediate adverse events
same,survival in the 7-day study period,grass carps,all the treated fish survived
"SCTSPHCFMWLP [P2, adhesion antagonistic peptide]",affinity constant,rOmpU fusion protein,(1.24 ± 0.56) × 10^9 L/mol
same,AAP concentration at 50% OD492nm,rOmpU fusion protein; rOmpU concentration 0.2 μg/mL,0.70 µg/mL
same,AAP concentration at 50% OD492nm,rOmpU fusion protein; rOmpU concentration 0.8 μg/mL,0.57 µg/mL
same,AAP concentration at 50% OD492nm,rOmpU fusion protein; rOmpU concentration 3.2 μg/mL,0.56 µg/mL
same,AAP concentration at 50% OD492nm,rOmpU fusion protein; rOmpU concentration 12.8 μg/mL,0.55 µg/mL
same,immediate adverse events (enervation or feed intake reduction),grass carps,no immediate adverse events
same,survival in the 7-day study period,grass carps,all the treated fish survived
